Broadly, the EC50 is the concentration needed to bring the measured effect to its halfway point. The term inhibition denotes the relative decrease from the control value, in per cent.

From patent US20240050463A1, “THERAPEUTIC COMPOSITIONS AND METHODS FOR TREATING HEPATITIS B” (ARBUTUS BIOPHARMA CORPORATION, priority 2016, published 2024) come the findings set out here.

Experiment [1] relates to HBsAg, D type HBV in primary human hepatocytes (PHH). Nature of the experiment: microbe, parasite or virus in culture. It is filed as cell-based. The following applies: for AVERAGE % INHIBITION, HBsAg: COMPOUND 3 0.00 nM; for AVERAGE % INHIBITION: HBsAg, COMPOUND 22 0.00 nM. As for the experimental part:
(§1) The mouse liver perfusion was applied to isolate PHHs. The isolated hepatocytes were further purified by Percoll. The cells were resuspended with culture media and seeded into the 96-well plates (6×10^4 cell/well) or 48-well plates (1.2×10^5 cell/well). The PHHs were infected with a D type HBV one day post seeding (day 1).
(§2) On day 2, the test compounds were diluted and added into the cell culture plates. The culture media containing the compounds were refreshed every other day. The cell culture supernatants were collected on day 8 for the HBV DNA and antigen determinations.
(§3) The compounds were tested at 7 concentrations, 3-fold dilution, in triplicate.
(§4) Two compounds were tested at 5×5 matrix, in triplicate plates.
(§5) HBsAg/HBeAg in the culture supernatants harvested on days 8 were measured by the HBsAg/HBeAg ELISA kit (Autobio) according to the manual. The samples were diluted with PBS to get the signal in the range of the standard curve. The inhibition rates were calculated with the formula below. The combination effect was analyzed by the MacSynergy software.
% Inh. HBsAg=[1−HBsAg quantity of sample/HBV quantity of DMSO control]×100.

Experiment [2] relates to HBeAg, D type HBV in primary human hepatocytes (PHH). Kind of experiment: microbe, parasite or virus in culture. Type of experiment: cell-based. As for the experimental part:
as §1, §2, §3, §4, §5
% Inh. HBeAg=[1−HBeAg quantity of sample/HBV quantity of DMSO control]×100.

The test system of experiment [3] is D type HBV in primary human hepatocytes (PHH). Kind of experiment: HBV DNA in culture supernatants of HBV-infected primary human hepatocytes (qPCR), MacSynergy. It is filed as cell-based. The following applies: for AVERAGE % INHIBITION, HBV DNA: COMPOUND 3 0.00 nM; for AVERAGE % INHIBITION: HBV DNA, COMPOUND 22 0.00 nM. Here is the method: as §1, §2, §3, §4
DNA in the culture supernatants harvested on days 8 were isolated with QIAamp 96 DNA Blood Kit (Qiagen-51161). For each sample, 100 μl of the culture supernatants was used to extract DNA. The DNA was eluted with 100 μl, 150 μl or 180 μl of AE. HBV DNA in the culture supernatants was quantified by qPCR. The combination effect was analyzed by the MacSynergy software. The primers are described below.
(In qPCR the cycle at which signal appears reflects the starting amount.)

Experiment [4] relates to HBV rcDNA in HepDE19 cells. Kind of experiment: Inhibition of rcDNA in HepDE19 cells (bDNA assay), checkerboard, MacSynergy II. Type of experiment: cell-based, HBV (human hepatoma cell line). The following applies: Hepatitis B virus, HepDE19, read-out: ADDITIVE INHIBITION
Here is the method:
In vitro combination studies were conducted using the method of Prichard and Shipman (Prichard M N, and Shipman C Jr., Antiviral Research, 1990, 14(4-5), 181-205; and Prichard M N, et. al., MacSynergy II). HepDE19 cell culture system is a HepG2 (human hepatocarcinoma) derived cell line that supports HBV DNA replication and cccDNA formation in a tetracycline (Tet)-regulated manner and produces HBV rcDNA and a detectable reporter molecule dependent on the production and maintenance of cccDNA (Guo et al 2007. J. Virol 81:12472-12484). HepDE19 (50,000 cells/well) were plated in 96 well collagen-coated tissue-culture treated microtiter plates in DMEM/F12 medium supplemented with 10% fetal bovine serum, 1% penicillin-streptomycin and 1 μg/ml tetracycline and incubated in a humidified incubator at 37° C. and 5% CO2 overnight. Next day, the cells were switched to fresh medium without tetracycline and incubated for 4 hrs at 37° C. and 5% CO2. […] The two inhibitors were tested both singly as well as in combinations in a checkerboard fashion such that each concentration of inhibitor A was combined with each concentration of inhibitor B to determine their combination effects on inhibition of rcDNA production. Following a 7 day-incubation of cells with compound combinations, the level of rcDNA present in the inhibitor-treated wells was measured using a Quantigene 2.0 bDNA assay kit (Affymetrix, Santa Clara, CA) with HBV specific custom probe set and manufacturers instructions. […] The RLU data from the single compound treated cells were analyzed using XL-Fit module in Microsoft Excel to determine EC50 values using a 4-parameter curve fitting algorithm. Concurrently, the effect of compounds on cell viability was assessed using replicate plates, plated at a density of 5,000 cells/well and incubated for 4 days, to determine the ATP content as a measure of cell viability using the cell-titer glo reagent (CTG; Promega Corporation, Madison, WI) as per manufacturer's instructions.
In vitro combination studies were conducted using the method of Prichard and Shipman (Prichard M N, Shipman C, Jr., Antiviral Res, 14, 181-205 (1990)). The HepDE19 cell line was developed as described in Guo et al. (Guo et al., J Virol, 81, 12472-12484 (2007)). It is a human hepatoma cell line stably transfected with the HBV genome, and which can express HBV pregenomic RNA and support HBV rcDNA (relaxed circular DNA) synthesis in a tetracycline-regulated manner. HepDE19 cells were plated in 96 well tissue-culture treated microtiter plates in DMEM/F12 medium supplemented with 10% fetal bovine serum+1% penicillin-streptomycin without tetracycline and incubated in a humidified incubator at 37° C. and 5% CO2 overnight. […] The two inhibitors were tested both singly as well as in combinations in a checkerboard fashion such that each concentration of inhibitor A was combined with each concentration of inhibitor B to determine their combination effects on inhibition of rcDNA production. Following a 48 hour-incubation, the level of rcDNA present in the inhibitor-treated wells was measured using a bDNA assay (Affymetrix) with HBV specific custom probe set and manufacturers instructions. […] Concurrently, the effect of inhibitor combinations on cell viability was assessed using replicate plates that were used to determine the ATP content as a measure of cell viability using the Cell-TiterGlo reagent (Promega) as per manufacturer's instructions.
In vitro combination studies were conducted using the method of Prichard and Shipman (1990) (Prichard M N, Shipman C, Jr. 1990. A three-dimensional model to analyze drug-drug interactions. Antiviral Res 14:181-205 AND Prichard M N. 1992. MacSynergy II, University of Michigan).

The test system of experiment [5] is hepatitis B virus (HBV). Kind of experiment: Serum HBsAg in mouse model of HBV (pAAV/HBV1.2 hydrodynamic injection), enzyme immunoassay. It is filed as in vivo, C3H/HeN mice. The following applies: HBV siRNA 1 mg/kg IV Days 0, 7, 14, poly(I:C) 20 μg HDI Day 0, mean ± SEM. The text has this:
A mouse model of hepatitis B virus (HBV) was used to assess the anti-HBV effects of an immune stimulant and HBV-targeting siRNAs, both as independent treatments and in combination with each other.
This plasmid carries a 1.2-fold overlength copy of a HBV genome and expresses HBV surface antigen (HBsAg) amongst other HBV products. Serum HBsAg expression in mice was monitored using an enzyme immunoassay. Animals were sorted (randomized) into groups based on serum HBsAg levels such that a) all animals were confirmed to express HBsAg and b) HBsAg group means were similar to each other prior to initiation of treatments.
Animals were treated with immune stimulant as follows: On Day 0, 20 micrograms of high molecular weight polyinosinic:poly cytidylic acid (poly(I:C)) was administered via HDI. Animals were treated with lipid nanoparticle (LNP)-encapsulated HBV-targeting siRNAs as follows: On each of Days 0, 7 & 14, an amount of test article equivalent to 1 mg/kg siRNA was administered intravenously. A negative control group was included as the HBsAg expression level is not completely stable in this mouse model of HBV; the absolute concentration of serum HBsAg generally declines over time in individual animals.
The effect of the treatments was determined by collecting a small amount of blood on Days 0 (pre-treatment), 3, 7, 14 & 21 and analyzing it for serum HBsAg content. Samples were diluted as appropriate to generate values within the assay range of quantitation where possible. Individual values falling below the lower limit of quantitation (LLOQ) were set as one-half the LLOQ.

Where [6] appears, read: Hepatitis B virus, Hepatocyte, read-out: AVERAGE % INHIBITION (HBV DNA).
Setting [7] is: Hepatitis B virus, Hepatocyte, read-out: AVERAGE % INHIBITION (HBsAg).
Where [8] appears, read: Hepatitis B virus, Hepatocyte, read-out: AVERAGE % INHIBITION (HBeAg).

In the case of `CNC(=O)N[C@H]1CCOc2c(C(=O)Nc3ccc(F)c(F)c3)ccc(F)c21` [Compound 23], the EC50 in experiment [1] (Hepatitis B virus, Hepatocyte, read-out: Inhibitor B EC50) was found to be 4.36 nM; in experiment [2] (Hepatitis B virus, Hepatocyte, read-out: Inhibitor B EC50, HBeAg endpoint, determined in an earlier separate experiment) it was 4.53 nM.

With `COCCCOc1cc2c(cc1OC)-c1cc(=O)c(C(=O)O)cn1C(C(C)C)C2` (stereo not shown) [Compound 25], the “AVERAGE % INHIBITION, HBV DNA” value in experiment [3] (COMPOUND 25 0.12 nM) is reported as −20.98%; in experiment [3] (COMPOUND 25 0.37 nM) it was −51.8%; in experiment [3] (COMPOUND 25 3.33 nM), 15.24%; in experiment [3] (COMPOUND 25 10.00 nM), 28%; in experiment [3] (COMPOUND 25 […]), 5.69%. The “AVERAGE % INHIBITION” value is given as −42.82% in experiment [3] (COMPOUND 25 0.12 nM); −46.48% in experiment [3] (COMPOUND 25 0.37 nM); 16.41% in experiment [3] (COMPOUND 25 3.33 nM); 37.39% in experiment [3] (COMPOUND 25 10.00 nM); −19.21% in experiment [3] (COMPOUND 25 […]); 12.93% in experiment [1] (COMPOUND 25 0.37 nM). For the same compound, the “AVERAGE % INHIBITION” value in experiment [1] (COMPOUND 25 […]) amounted to 26.4%; in experiment [2] (HBeAg, COMPOUND 25 […], COMPOUND 22 0.00 nM) it was 14.98%. Besides, the “AVERAGE % INHIBITION, HBsAg” value in experiment [1] (COMPOUND 25 0.37 nM) is listed as −5.09%; in experiment [1] (COMPOUND 25 […]), −3.18%. Moreover, the “AVERAGE % INHIBITION, HBeAg” value in experiment [2] (COMPOUND 25 […], COMPOUND 3 0.00 nM) stood at 4.51%.

For `CC(C)OC(=O)[C@H](C)N[P@](=O)(CO[C@H](C)Cn1cnc2c(N)ncnc21)Oc1ccccc1` [TAF, tenofovir alafenamide], in experiment [4], the inhibition at 0.0007813 µM is -4.76% and the inhibition at 0.0015625 µM came out at 3.49%. Moreover, in experiment [3] (setting [6]), the inhibition at 0.00012 µM was -2.6%, the inhibition at 0.00037 µM is -1.92%, the inhibition at 0.00333 µM is 40.2% and the inhibition at 0.01 µM was 50.2%. In addition, the “AVERAGE % INHIBITION, HBV DNA” value in experiment [3] (TAF 0.05 nM) is listed as −8.77%. Besides, the “AVERAGE % INHIBITION, HBV DNA” value in experiment [3] (TAF 0.41 nM) worked out at 28.78%. Moreover, the “AVERAGE % INHIBITION, HBV DNA” value in experiment [3] (TAF 1.23 nM) was found to be 63.39%. Moreover, the “AVERAGE % INHIBITION, HBV DNA” value in experiment [3] (TAF 3.70 nM) is reported as 78.31%. In experiment [1] (setting [7]), the inhibition at 0.000123457 µM worked out at 29.8%, the inhibition at 0.00037037 µM turned out to be 10.8%, the inhibition at 0.00111111 µM came to 20.8% and the inhibition at 0.00333333 µM was 9.06%. Further, the inhibition at 0.01 µM in experiment [1] (setting [7]) was 7.97%. Moreover, in experiment [2] (setting [8]), the inhibition at 50 pM is 1.17%, the inhibition at 0.00014 µM is -2.78%, the inhibition at 0.00041 µM was 1.76% and the inhibition at 0.00123 µM came out at 9.91%. The inhibition at 0.0037 µM in experiment [2] (setting [8]) was 11.9%.

As for “polyinosinic:poly cytidylic acid [Poly(I:C)]”, the “Serum HBsAg as percentage of individual pre-treatment baseline” value turned out to be 100 ± 0% in experiment [5] (Day 0 (pre-treatment)); 6.1 ± 1.1% in experiment [5] (Day 3); 3.5 ± 1.1% in experiment [5] (Day 7); 3.9 ± 1.4% in experiment [5] (Day 14); 4.7 ± 2.3% in experiment [5] (Day 21).
